Source: US11230538B2, “Herbicides” (SYNGENTA PARTICIPATIONS AG, priority 2016, dated 2022)

What was measured:
Assay type in all cases: in vivo
[1] = tested on: Alopecurus myosuroides (ALOMY); test: B1 Pre-emergence herbicidal activity; set-up: key: 5=total damage to plant; 0=no damage to plant; settings: pre-emergence application, evaluated after 13 days
Method: (§1) Seeds of a variety of test species were sown in standard soil in pots: Triticum aestivium (TRZAW), Avena fatua (AVEFA), Alopecurus myosuroides (ALOMY), Echinochloa crus-galli (ECHCG), Lolium perenne (LOLPE), Zea Mays (ZEAMX), Abutilon theophrasti (ABUTH), Amaranthus retroflexus (AMARE) and Setaria fabenr (SETFA). After cultivation for one day (pre-emergence) under controlled conditions in a glasshouse (at 24/16° C., day/night; 14 hours light; 65% humidity), the plants were sprayed with an aqueous spray solution derived from the formulation of the technical active ingredient in acetone I water (50:50) solution containing 0.5% Tween 20 (polyoxyethelyene sorbitan monolaurate, CAS RN 9005-64-5). The test plants were then grown in a glasshouse under controlled conditions (at 24/16° C., day/night; 14 hours light; 65% humidity) and watered twice daily. After 13 days, the test was evaluated (5=total damage to plant; 0=no damage to plant).

Avena fatua (AVEFA) = test: B1 Pre-emergence herbicidal activity; set-up: key: 5=total damage to plant; 0=no damage to plant; settings: pre-emergence application, evaluated after 13 days
Method: as §1

[2] = tested on: Triticum aestivium (TRZAW); test: B1 Pre-emergence herbicidal activity; set-up: key: 5=total damage to plant; 0=no damage to plant; settings: pre-emergence application, evaluated after 13 days
Method: as §1

[3] = tested on: Echinochloa crus-galli (ECHCG); test: B1 Pre-emergence herbicidal activity; set-up: key to Pre-emergence herbicidal activity, ECHCG (damage score 0-5): 5=total damage to plant; 0=no damage to plant; settings: pre-emergence application, evaluated after 13 days
Method: as §1

Lolium perenne (LOLPE) = test: B1 Pre-emergence herbicidal activity; set-up: key to Pre-emergence herbicidal activity, LOLPE (damage score 0-5): 5=total damage to plant; 0=no damage to plant; settings: pre-emergence application, evaluated after 13 days
Method: as §1

Setaria fabenr (SETFA) = test: B1 Pre-emergence herbicidal activity; set-up: key to Pre-emergence herbicidal activity, SETFA (damage score 0-5): 5=total damage to plant; 0=no damage to plant; settings: pre-emergence application, evaluated after 13 days
Method: as §1

[4] = tested on: Echinochloa crus-galli (ECHCG); test: B2 Post-emergence herbicidal activity; settings: post-emergence application, evaluated after 13 days
Method: (§2) Seeds of a variety of test species were sown in standard soil in pots: Triticum aestivium (TRZAW), Avena fatua (AVEFA), Alopecurus myosuroides (ALOMY), Echinochloa crus-galli (ECHCG), Lolium perenne (LOLPE), Zea Mays (ZEAMX), Abutilon theophrasti (ABUTH), Amaranthus retroflexus (AMARE) and Setaria fabenri (SETFA). After 8 days cultivation (post-emergence) under controlled conditions in a glasshouse (at 24/16° C., day/night; 14 hours light; 65% humidity), the plants were sprayed with an aqueous spray solution derived from the formulation of the technical active ingredient in acetone I water (50:50) solution containing 0.5% Tween 20 (polyoxyethelyene sorbitan monolaurate, CAS RN 9005-64-5). The test plants were then grown in a glasshouse under controlled conditions (at 24/16° C., day/night; 14 hours light; 65% humidity) and watered twice daily. After 13 days, the test was evaluated (5=total damage to plant; 0=no damage to plant).

[5] = tested on: Alopecurus myosuroides (ALOMY); test: B2 Post-emergence herbicidal activity; set-up: key: 5=total damage to plant; 0=no damage to plant; settings: post-emergence application, evaluated after 13 days
Method: as §2

Setaria fabenri (SETFA) = test: B2 Post-emergence herbicidal activity; set-up: key: 5=total damage to plant; 0=no damage to plant; settings: post-emergence application, evaluated after 13 days
Method: as §2

[6] = tested on: Triticum aestivium (TRZAW); test: B2 Post-emergence herbicidal activity; set-up: key: 5=total damage to plant; 0=no damage to plant; settings: post-emergence application, evaluated after 13 days
Method: as §2

Structure (SMILES) | Pre-emergence herbicidal activity, ALOMY (damage score 0-5) ([1]; rate 1000 g/ha) | Pre-emergence herbicidal activity, AVEFA (damage score 0-5) (Avena fatua (AVEFA); rate 1000 g/ha) | Pre-emergence herbicidal activity, TRAZW (damage score 0-5) ([2]; rate 1000 g/ha) | Pre-emergence herbicidal activity, ECHCG (damage score 0-5) ([3]; rate 1000 g/ha) | Pre-emergence herbicidal activity, LOLPE (damage score 0-5) (Lolium perenne (LOLPE); rate 1000 g/ha) | Pre-emergence herbicidal activity, SETFA (damage score 0-5) (Setaria fabenr (SETFA); rate 1000 g/ha) | Post-emergence herbicidal activity, ECHCG (damage score 0-5) ([4]; rate 1000 g/ha) | Post-emergence herbicidal activity, ALOMY (damage score 0-5) ([5]; rate 1000 g/ha) | Post-emergence herbicidal activity, SETFA (damage score 0-5) (Setaria fabenri (SETFA); rate 1000 g/ha) | Post-emergence herbicidal activity, TRAZW (damage score 0-5) ([6]; rate 1000 g/ha) | Pre-emergence herbicidal activity, ALOMY (damage score 0-5) ([1]; rate 250 g/ha) | Pre-emergence herbicidal activity, AVEFA (damage score 0-5) (Avena fatua (AVEFA); rate 250 g/ha) | Pre-emergence herbicidal activity, TRAZW (damage score 0-5) ([2]; rate 250 g/ha) | Pre-emergence herbicidal activity, ECHCG (damage score 0-5) ([3]; rate 250 g/ha) | Pre-emergence herbicidal activity, LOLPE (damage score 0-5) (Lolium perenne (LOLPE); rate 250 g/ha) | Pre-emergence herbicidal activity, SETFA (damage score 0-5) (Setaria fabenr (SETFA); rate 250 g/ha) | Post-emergence herbicidal activity, ECHCG (damage score 0-5) ([4]; rate 250 g/ha) | Post-emergence herbicidal activity, ALOMY (damage score 0-5) ([5]; rate 250 g/ha) | Post-emergence herbicidal activity, SETFA (damage score 0-5) (Setaria fabenri (SETFA); rate 250 g/ha) | Post-emergence herbicidal activity, TRAZW (damage score 0-5) ([6]; rate 250 g/ha)
CCN(CC)CCCN(C(=O)C(C)C)c1ccc(-c2cncc(F)c2)nc1C(F)(F)F [Compound C69] | 0 | 1 | 0 | 3 | 0 | 5 | 3 | 0 | 4 | 0 |  |  |  |  |  |  |  |  |  | 
COCC(=O)N(Cc1cnc(Cl)s1)c1ccc(-c2cncc(F)c2)nc1C(F)(F)F [Compound C83] | 0 | 1 | 0 | 2 | 1 | 4 | 2 | 0 | 3 | 0 |  |  |  |  |  |  |  |  |  | 
CCC(=O)N(CCOC)c1ccc(-c2cncc(F)c2)nc1C(F)(F)F [Compound C96] | 1 | 1 | 0 | 3 | 0 | 5 | 3 | 0 | 4 | 0 |  |  |  |  |  |  |  |  |  | 
CC(C)C(=O)N(CC1CC1)c1ccc(-c2cncc(F)c2)nc1C(F)(F)F [Compound C87] | 0 | 0 | 0 | 2 | 0 | 5 | 3 | 0 | 4 | 0 |  |  |  |  |  |  |  |  |  | 
CC(C)CN(C(=O)C(C)C)c1ccc(-c2cncc(F)c2)nc1C(F)(F)F [Compound C86] | 0 | 0 | 0 | 0 | 0 | 1 | 1 | 0 | 1 | 0 |  |  |  |  |  |  |  |  |  | 
COCC(=O)N(CC(C)C)c1ccc(-c2cncc(F)c2)nc1C(F)(F)F [Compound C79] | 0 | 1 | 0 | 3 | 2 | 5 | 3 | 0 | 3 | 0 |  |  |  |  |  |  |  |  |  | 
CCC(=O)N(CC1CC1)c1ccc(-c2cncc(F)c2)nc1C(F)(F)F [Compound C108] | 0 | 1 | 0 | 2 | 1 | 5 | 3 | 0 | 4 | 0 |  |  |  |  |  |  |  |  |  | 
COCC(=O)N(COCC(C)(C)C)c1ccc(-c2cncc(F)c2)nc1C(F)(F)F [Compound C81] | 0 | 1 | 0 | 3 | 2 | 5 | 4 | 0 | 5 | 0 |  |  |  |  |  |  |  |  |  | 
CSCCN(C(=O)c1ccccc1)c1ccc(-c2cncc(F)c2)nc1C(F)(F)F [Compound C104] |  |  |  |  |  |  |  |  |  |  | 0 | 0 | 0 | 0 | 0 | 3 | 1 | 0 | 2 | 0
COCC(=O)N(Cc1ccc(Cl)cc1)c1ccc(-c2cncc(F)c2)nc1C(F)(F)F [Compound C82] | 0 | 0 | 0 | 1 | 0 | 1 | 1 | 0 | 2 | 0 |  |  |  |  |  |  |  |  |  | 
